In patent US10104889B2 (priority 2011, dated 2018):

Test system: Candidatus ‘Liberibacter asiaticus’
Assay type: in vivo
Conditions: 1 μM, all tested variants, monthly until sixth month, FIG. 6

## C[C@@H]1CC[C@@]2(OC1)O[C@H]1C[C@H]3[C@@H]4CC[C@H]5CC(O)CC[C@]5(C)[C@H]4OC(=O)C[C@]3(C)[C@H]1[C@@H]2C (stereo partly drawn) [brassinosteroid analogue, (25R)-3-hydroxy-C-homo-11-oxa-5-espirostan-12-one]
  bacterial reduction at application frequencies 1, 2 and 4 times per month: bacterial reduction was observed
